Data on two compounds can be found in US10653691B2, “Method of promoting remyelination” (Case Western Reserve University, priority 2013, dated 2020).

For data set [1], the system named is MOG35-55 EAE mouse model. Briefly: External validation of MOG35-55 EAE at an independent contract laboratory. The format is in vivo. The following applies: 10 mg/kg, n=12 mice per group. How it is done:
EAE was induced by immunizing 10-week-old C57BL/6 female mice with […] injection of […] complete Freund's adjuvant emulsion (Hooke Laboratories). One hour after immunization, mice were given 100 ng of pertussis toxin by 100 μl intraperitoneal injection. A second dose of pertussis toxin was administered the next day. EAE onset was monitored daily and scored using a clinical scale where 0 represented no abnormality; 1, limp tail; 2, limp tail and hind limb weakness; 3, hind limb paralysis; 4, hind limb paralysis and forelimb weakness; and 5, moribund. […] Once mice reached peak of disease ˜day 15; clinical score=3) they were randomized into treatment groups, and drug or vehicle (DMSO in saline) was administered intraperitoneally daily for 10 days (n=12-16 mice per group). […] Experimenters were blinded to the identity of the treatments and animals were scored daily. Cumulative disease scores for each animal were calculated during the treatment period, and a two-tailed t-test compared drug—with vehicle-treated groups. The extent of recovery for each animal was calculated as the difference between the peak disease score and the score at the end of each experiment, and a two-tailed t-test was used to compare each treatment with vehicle. […]

In data set [2] the test system is ERK1/2. Kind of data set: Western blot of ERK1/2 phosphorylation in mouse fibroblasts. The format is cell-based. Particulars: non-neural cell type, treated for 1 h. A general note: Immunoblotting shows a protein as a band on a membrane.
The test system of data set [3] is mouse OPCs. Kind of data set: Global phosphoproteomics of drug-treated OPCs. The format is cell-based. The following applies: 1 and 5 h after treatment. On the procedure: Briefly, for each sample 30 million cells were lysed with 2% SDS solution with protease and phosphatase inhibitor (Thermo Fisher), and detergent was removed on 200 μl of the cell lysate using the FASP cleaning procedure. Each sample was digested by a two-step Lys-C/trypsin proteolytic cleavage and subjected to phospho-enrichment using a commercially available TiO2 enrichment spin tips (Thermo Fisher). LC-MS/MS analysis used a UPLC system (NanoAcquity, Waters) that was interfaced to an Orbitrap ProVelos Elite MS system (Thermo Fisher). Fold-change calculations were determined from peptide intensities for each drug versus DMSO at each time point. Phosphopeptides with greater than twofold change were imported into Ingenuity Pathway Analysis to elucidate signalling pathways perturbed with drug treatment.

For data set [4] the following is noted: mice, intraperitoneal. How it is done: After 1 or 6 h, […] of plasma was collected then each animal was perfused with PBS. Brains were collected, weighed, and rinsed with PBS. Water (0.5 ml) was added to the brain samples, which were then homogenized. Plasma and brain samples were each diluted fivefold with blank rat plasma. Three hundred microlitres of internal standard solution was added to the samples, vortexed, and centrifuged. Five microlitres of each sample was injected into an API-4000Qtrap mass spectrometer and quantified (Climax Labs).

Data set [5] concerns mouse OPCs. Briefly: RNA sequencing of drug-treated OPCs. Type of data set: cell-based. The following applies: 2, 6 or 12 h of drug treatment. On the procedure: Cells were lysed directly in 1 ml TRIzol (Invitrogen) and stored at −80° C. Once all samples were collected, samples were thawed on ice and separated with chloroform using Phase Lock Gel tubes (5 PRIME). RNA was isolated using the miRNeasy PlusMini Kit (Qiagen) according to the manufacturer's protocol. One microgram of each sample was then poly-A selected, fragmented, and library prepared using the TruSeqRNA Sample Prep Kit (Illumina) according to the manufacturer's protocol. Samples were indexed using TruSeq adapters. One hundred base-pair paired-end reads were generated for each sample on an Illumina HiSeq 2500 instrument at the Case Western Reserve University Genomics Core facility. Between 5 million and 13 million reads were generated per sample for drug time course experiments. […] EpiSCs, EpiSC OPCs, and in vivo OPCs were sequenced to depths of 51,271,458 reads, 61,072,460 reads, and 62,530,709 reads, respectively. […]
Reference genome files were retrieved from Illumina iGenomes. Reads were aligned to the mm9 genome using Tophat version 2.0.8 with default settings. Expression values of known RefSeq genes were calculated in units of fragments per kilobase per million reads (FPKM) using Cufflinks version 2.0.2. […] The collective list of changed genes for each drug was evaluated with Ingenuity Pathway Analysis (application build 261899, content version 18030641).

In data set [6] the test system is naive CD4+ T cells. Briefly: Naive CD4+ T-cell assays. The following applies: Th1 or Th17 driving conditions, 4 days. Type of data set: cell-based, mouse. How it is done:
Naive CD4+ T cells (CD4+L-selectin^hi cells) were purified using AutoMacs Magnetic Bead cell separation technology (Miltenyi Biotech) from total lymph node cells isolated from unprimed mice with purity ranging from 98 to 99.9%. For in vitro activation, 5×10^5 naive CD4^+ T cells were activated in the presence of plate-bound anti CD3 (1 μgml^−1) plus Th1—(200 U ml^−1 interleukin-2 (IL-2), 40 U ml^−1 IL-12, 10 μgml^−1 anti-IL-4) or Th17—([…], 50 ng ml^−1 IL-6, 1 μgml^−1 anti-IFN-γ, 1 μgml^−1 anti-IL-4, 1 μgml^−1 anti-IL-2) promoting conditions. On day 4, the cultured T cells were collected and the percentage of viable cytokine positive cells assessed by flow cytometry. The cells were stained with a LIVE/DEAD Fixable Violet Dead Cell Stain Kit, for 405 nm excitation (Life Technologies), anti CD4-APC/Cy7 (clone RM4-5), anti-IFN-γ-PerCP/Cy5.5 (clone XMG1.2), and anti-IL-17-APC (clone eBio17B7) (eBioscience). Viable cells (5×10^5) were analysed per individual sample using a BD Canto II cytometer (BD Biosciences), and the data were analysed using FloJo version 9.5.2 software (Tree Star).

In data set [7] the test system is PLP139-151 EAE mouse model. Kind of data set: PLP139-151-induced relapsing remitting EAE. The format is in vivo. An excerpt:
Six- to seven-week-old female SJL/J mice were induced with PLP139-151 as for ex vivo recall assays. Mice were allowed to progress to disease onset at day 13 before being randomized into treatment groups (n=10 mice per group). […] This period fully encompassed the acute phase of disease onset followed by remission and the primary disease relapse. Treatments were blinded to the experimenters performing the assays.

As to `Clc1ccc(COC(Cn2ccnc2)c2ccc(Cl)cc2Cl)c(Cl)c1` (centres unmarked) [miconazole], the “efficacy to reduce disease severity, independent validation” value in data set [1] was “independently validated the preclinical efficacy”. Besides, in data set [2], the “ERK1/2 phosphorylation in mouse fibroblasts” value is “no increase of ERK1/2 phosphorylation”. The “pathways affected in phosphoproteomic analysis” value in data set [3] is recorded as “proteins in the mitogen-activated protein (MAP) kinase pathway were most strongly affected”.
For `C[C@H]1C[C@H]2[C@@H]3CCC4=CC(=O)C=C[C@]4(C)[C@@]3(F)[C@@H](O)C[C@]2(C)[C@@]1(O)C(=O)CCl` [clobetasol], in data set [4], the “crossing of the blood-brain barrier” value is listed as “readily crossed the blood-brain barrier”. Further, the “modulation of gene expression” value in data set [5] was “potently modulated genes downstream of multiple nuclear hormone receptors”. Further, the “naive T-cell differentiation” value in data set [6] is “altered naïve T-cell differentiation”. Also, the “efficacy in reducing disease severity” value in data set [7] (daily i.p. day 13 to 29, clobetasol 2 mg/kg, miconazole 10 mg/kg, benztropine 10 mg/kg) was “showed efficacy in reducing disease severity”. For the same compound, in data set [7] (day 29, 2 mg/kg), the “T cells within the spleen” value is “severe reduction of T cells within the spleen”.
